In patent US4413005A, “Carbamate derivatives and insecticidal, miticidal or nematocidal compositions containing the same” (priority 1981, dated 1983):
Entries after “also recorded” stand apart in the source; their conditions may differ.

Tests used:
[1] = Acute oral toxicity in male mice, LD50 by Litchfield-Wilcoxon method (Test Example 5); conditions: mouse, in vivo, mortality on the seventh day
Protocol: Compounds of this invention were tested on male mice for acute toxicity by oral administration.

noxious insects = conditions: background statement, known; cited from earlier work
warm-blooded animals = conditions: background statement, known; cited from earlier work
[2] = system: green rice leafhopper (Nephotettix cincticeps); test: Mortality of female adults of green rice leafhopper on paddy rice (Test Example 2); format: in vivo; conditions: 72 h
Protocol: An emulsion of specified concentration was prepared from a 50% wettable powder of the compound to be tested and applied to the leaves of paddy rice (one-month-old seedlings) planted in a pot to fully wet the leaves. After the emulsion had been dried, the pot was covered with a net cage, into which 10 female adults of green rice leafhopper (Nephotettix cincticeps) were released. The compound of each specified concentration was tested on two pots.

[3] = system: house fly (Musca domestica); test: Local application to house fly, LD50 by Probit method (Test Example 4); format: in vivo; conditions: topical, 24 h
Protocol: The compound to be tested was dissolved in a predetermined amount of acetone. The solution was diluted to various concentrations and locally applied to house fly (Musca domestica).

[4] = system: tobacco cutworm (Spodoptera litura); test: Mortality of third-instar larvae of tobacco cutworm on cabbage (Test Example 1); format: in vivo; conditions: 72 h
Protocol: Ten third-instar larvae of tobacco cutworm (Spodoptera litura) were placed on a cabbage (one-month-old seedling) planted in a pot, and a 50% emulsion of the compound to be tested was diluted to a specified concentration and applied to the leaves of the plant to fully wet them. The test compound of each specified concentration was tested on two pots.

SMILES | LD50 at 168 h [1] | insecticidal activity (noxious insects) | toxicity to warm-blooded animals (warm-blooded animals) | mortality at 200 ppm [2] | mortality at 400 ppm [2] | mortality at 800 ppm [2] | LD50 [3] | mortality at 500 ppm [4] | mortality at 1000 ppm [4] | mortality at 2000 ppm [4]
CNC(=O)Oc1cccc2c1OC(C)(C)C2 [carbofuran, 2,3-dihydro-2,2-dimethylbenzofuran-7-yl N-methyl-carbamate] | 5.6 mg/kg | high insecticidal activity; also recorded: highest insecticidal activity heretofore known | high toxicity to warm-blooded animals |  |  |  |  |  |  | 
CCCCN(CC(=O)OCC)SN(C)C(=O)Oc1cccc2c1OC(C)(C)C2 [Example 12, 2,3-dihydro-2,2-dimethylbenzofuran-7-yl N-(N-butyl-N-ethoxycarbonylmethylaminosulfenyl)-N-methyl-carbamate] | 125 mg/kg |  |  | 65% | 90% | 100% | 16.7 mg/kg | 75% | 90% | 100%
COC(=O)CCN(SN(C)C(=O)Oc1cccc2c1OC(C)(C)C2)C(C)C [Example 24] | 77 mg/kg |  |  | 60% | 90% | 100% | 38.6 mg/kg | 75% | 85% | 100%
CCOC(=O)CN(SN(C)C(=O)Oc1cccc2c1OC(C)(C)C2)c1cccc(C)c1 [Example 21] | 105 mg/kg |  |  | 65% | 90% | 100% | 10.4 mg/kg | 75% | 90% | 100%
CCOC(=O)CCN(SN(C)C(=O)Oc1cccc2c1OC(C)(C)C2)C1CCCCC1 [Example 32, 2,3-Dihydro-2,2-dimethylbenzofuran-7-yl N-(N-cyclohexyl-N-ethoxycarbonylethylaminosulfenyl)-N-methylcarbamate] | 107 mg/kg |  |  | 55% | 75% | 100% | 32.7 mg/kg | 65% | 80% | 100%
CN(SN(CC(=O)OC1CCCCC1)CC(=O)OC1CCCCC1)C(=O)Oc1cccc2c1OC(C)(C)C2 [Example 5] | 90 mg/kg |  |  | 45% | 80% | 100% | 75.6 mg/kg | 65% | 80% | 100%
CCOC(=O)CN(CCC#N)SN(C)C(=O)Oc1cccc2c1OC(C)(C)C2 [Example 8] | 105 mg/kg |  |  | 60% | 85% | 95% | 24.6 mg/kg | 75% | 85% | 100%
CCOC(=O)CN(Cc1ccc(Cl)cc1)SN(C)C(=O)Oc1cccc2c1OC(C)(C)C2 [Example 20] | 75 mg/kg |  |  | 60% | 80% | 100% | 61.9 mg/kg | 65% | 85% | 100%
CCOC(=O)N(CCC#N)SN(C)C(=O)Oc1cccc2c1OC(C)(C)C2 [Example 51] | 88 mg/kg |  |  | 65% | 85% | 100% | 45.3 mg/kg | 70% | 85% | 100%
CCOC(=O)CCN(SN(C)C(=O)Oc1cccc2c1OC(C)(C)C2)C(=O)OCC [Example 52] | 125 mg/kg |  |  | 65% | 85% | 100% | 54.3 mg/kg | 70% | 85% | 100%
CN(SN(CC#N)c1ccccc1)C(=O)Oc1cccc2c1OC(C)(C)C2 [Example 35] | 95 mg/kg |  |  | 60% | 75% | 95% | 65.6 mg/kg | 65% | 80% | 100%
CN(SN(CC#N)CC#N)C(=O)Oc1cccc2c1OC(C)(C)C2 [Example 1, 2,3-dihydro-2,2-dimethylbenzofuran-7-yl N-[N,N-bis(cyanomethyl)aminosulfenyl]-N-methyl-carbamate] | 58 mg/kg |  |  | 50% | 85% | 100% | 21.3 mg/kg | 65% | 80% | 100%
